According to article PMC12040169 (PLOS Biology, 2025):

Experiment: in vitro
Settings: human, hela cells, % viability

Compound	viability at 28.5 h, 10 µM	viability at 28.5 h, 10 µM (bulk resorufin, single well)
Cn1c(=O)n(C)c2cc(S(=O)(=O)NCCOc3ccc(C(=O)O)cc3)ccc21 [CBK299824]	94.9%	–
CC(=O)CCCCC(=O)N1CCC2(CC1)CC(=O)c1cc(C)c(C)cc1O2 [CBK156497]	106%	–
CC1CCCC(C)N1C(=O)CN1C2CCC1CC(O)(c1ccco1)C2 (centres unmarked) [CBK284043]	85.4%	–
Cc1c(C(=O)C2=C(O)C(=O)N(CCCN(C)C)C2c2ccccn2)cnn1-c1ccccc1 (centres unmarked) [CBK266516]	100%	–
CC(CC(=O)C1C(C)C=CCC1(C)C)NNC(=O)c1ccccc1O (centres unmarked) [CBK262980]	91.6%	–
Cc1ccc(S(=O)(=O)NC(CC(=O)Nc2ccc(Br)cc2)c2ccccc2)cc1 (centres unmarked) [CBK265110]	93.3%	–
COCC(=O)N1CCC(c2nc(C)n3c(C)csc23)CC1 [CBK285198]	96.7%	–
CC(=O)c1cccc(-c2cnc(N)c(-c3ccc(O)cc3)n2)c1 [CBK122508]	98.1%	–
O=C1CN(c2ccccc2)C(=O)N1c1ccccc1 [CBK116496]	98.2%	–
Cc1cccc(-c2n[nH]/c(=N/C(=O)c3ccccc3F)s2)c1 [CBK287957]	84.5%	–
Cc1c(C(=O)Nc2ccc(S(=O)(=O)N(C)Cc3ccccc3)cc2)cccc1[N+](=O)[O-] [CBK267534]	109%	–
Cc1cc(NC(=O)CSc2nnc3ccc(-c4ccccc4)nn23)no1 [CBK287679]	108%	–
COc1ccc(Cl)cc1S(=O)(=O)N1CCC(C(=O)NCc2cccnc2)CC1 [CBK269878]	93.4%	–
CC(C)N1CCC2(C/C=C/CNC(=O)c3ccccc3OCCNC2=O)CC1 [CBK292094]	98.7%	–
Cc1ccccc1Cc1cccc(C2CCN(S(=O)(=O)c3cn[nH]c3)CC2)n1 [CBK286125]	90.8%	–
COc1ccc(CNC(=O)c2sc3nc4c(c(C(F)(F)F)c3c2N)CCC4)cc1OC [CBK074568]	85.7%	–
CC(C)(c1ccc(Oc2ccc3c(c2)C(=O)N(c2nccs2)C3=O)cc1)c1ccc(Oc2ccc3c(c2)C(=O)N(c2nccs2)C3=O)cc1 [CBK262258]	103%	–
Cc1ccc2c(c1)cc(C(=O)N1CCOC(C(=O)N3CCCCCC3)C1)n2C (centres unmarked) [CBK286032]	109%	–
Cn1ncc2c1CCCC2NC(=O)NCc1ccc(C#N)cc1F (centres unmarked) [CBK305193]	85.4%	–
Cc1cc(COC(=O)N2CCCC(C(F)(F)F)C2)cc(C)n1 (centres unmarked) [CBK200150]	92.8%	–
CCOC(=O)C1(C2CCCCC2)CCN(C(=O)c2cc(C)[nH]n2)CC1 [CBK137100]	96.2%	–
Cc1cc(OC(C)C(=O)Nc2nnc[nH]2)ccc1Cl (centres unmarked) [CBK269731]	87%	–

Compound	viability at 28.5 h, 10 µM	viability at 28.5 h, 10 µM (bulk resorufin, single well)
NS(=O)(=O)c1ccc(NC(=O)CSc2cccc3ccccc23)cc1 [CBK268987]	93.2%	–
CC(C)c1cc(C(=O)N(C)Cc2cccc3ncccc23)n(C)n1 [CBK282567]	86.4%	–
CCn1c2cc(C)oc2c2cnn(CC(=O)N3CCCCC3)c(=O)c21 [CBK284220]	90.2%	–
COC(=O)CCc1ccc(S(=O)(=O)N2CCCN(Cc3ccc(C)o3)CC2)cc1 [CBK063081]	99.8%	–
COCCc1nc(Cc2ccc(OC)cc2)nn1CC1COCCO1 (centres unmarked) [CBK307521]	89.7%	–
c1ccc(N2CCN(c3cncc(-c4ccc5ccccc5c4)n3)CC2)nc1 [CBK066104]	100%	–
Cc1ccccc1OCc1nc(C#N)c(NCc2ccc3c(c2)OCO3)o1 [CBK073372]	109%	–
FC(F)(F)c1ccnc(SCc2ccc(Cl)c(Cl)c2)n1 [CBK103723]	85.6%	–
O=C(CCC(=O)OCN1C(=O)c2ccccc2C1=O)Nc1ccc2ccccc2c1 [CBK265277]	108%	–
CCOC(=O)C1CCCN(Cc2c(C)nn(C)c2Cl)C1 (centres unmarked) [CBK304838]	92.4%	–
COc1ccccc1CN1CCC2(CCCNC2=O)CC1 [CBK284823]	85.2%	–
COc1ccc(CSCc2n[nH]c(=O)[nH]2)cc1[N+](=O)[O-] [CBK267425]	101%	–
C=CCNC(=O)N1CC[C@H]2CC(=O)N(Cc3cccnc3)CC[C@H]2C1 [CBK288791]	113%	–
O=C(CNC(=O)OCc1ccncc1)NCC(CCCN1CCC(c2ccccc2)CC1)(c1ccccc1)c1ccccc1 [CBK024060A]	112%	–
COc1cccc(NC(=O)CSc2nnc(CC(C)C)n2C)c1 [CBK269626]	103%	–
CCOc1cc(/C=N\NC(=O)CNc2ccccc2C)cc(Br)c1O [CBK262151]	86.5%	–
CCCCn1ncnc1-c1cnc2ccnn2c1C [CBK307305]	114%	–
CC(NC(=O)c1nn(-c2ccc(F)cc2)c2c1CCCC2)c1ccc2c(c1)OCCO2 (centres unmarked) [CBK296682]	103%	–
O=S(=O)(Nc1cccc(-c2nnn[nH]2)c1)c1ccc(F)cc1 [CBK050470]	88.5%	–
O=C(NC[C@H]1O[C@@H](CC(=O)N2CCCC2)[C@H](O)[C@@H]1O)c1ccccc1 [CBK288907]	88.5%	–
O=C(NCc1ccccn1)C(=O)N/N=C/c1ccccc1O [CBK262157]	85.4%	–
O=C(Nc1ccccn1)c1cc2ccccc2oc1=O [CBK287354]	91.7%	–

Compound	viability at 28.5 h, 10 µM	viability at 28.5 h, 10 µM (bulk resorufin, single well)
COc1cc2c(cc1OC)C(CCN1CCN(c3ccc(Cl)cc3)CC1)OCC(C)(C)C2 (centres unmarked) [CBK024051C]	111%	–
O=C(NCCCn1ccnc1)c1ncoc1-c1ccccc1F [CBK283917]	96%	–
CC(=O)Nc1ccc(S(=O)(=O)N2CCN(S(=O)(=O)c3ccccc3)CC2)cc1 [CBK264163]	94%	–
CC(C)(C)Oc1nc(=O)[nH]c(=O)[nH]1 [CBK007194]	98.3%	–
O=C(NC1CCCCC1)c1cc(Br)cnc1NCCCn1ccnc1 [CBK076494]	99.7%	–
CCSc1c(C)cnc2c1c(=O)n(C)c(=O)n2C [CBK287748]	99.8%	–
Cc1ccc(CCP(=O)(O)CN2CCOCC2)cn1 [CBK022176]	109%	–
COc1cc(CN2CCC(N3CCCCC3)CC2)c([N+](=O)[O-])cc1OC [CBK261858]	93.3%	–
CCOC(=O)c1cnc(N2CCOCC2)nc1NCCc1c[nH]c2ccccc12 [CBK093605]	106%	–
COCc1ccc(C(=O)N2CCCC(c3cc4ncccc4[nH]3)C2)o1 (centres unmarked) [CBK282106]	87%	–
COc1ccc(S(=O)(=O)N2CCN(C(=O)c3cc(-c4ccncc4)nc4c(C)c(Cl)ccc34)CC2)cc1 [CBK267739]	92.6%	–
Nc1c(C(=S)c2cccs2)oc2c1C(c1ccccc1)CC(=O)N2 (centres unmarked) [CBK020690]	42.2%	–
Cc1nc(Nc2c(Cl)cc(S(N)(=O)=O)cc2Cl)sc1C(=O)Nc1ccccc1 [CBK265335]	106%	–
Cc1ccc(C(=O)C(C)OC(=O)c2cc(-c3ccccc3)nc3ccccc23)cc1 (centres unmarked) [CBK264067]	99.8%	–
CC(C)OC(=O)CN1C(=O)N2CCCN=C2c2ccccc21 [CBK284394]	89.4%	–
Cc1ccc(CC2CCCN(C(=O)NCc3cnn(C)c3)C2)cc1 (centres unmarked) [CBK303990]	91.8%	–
COCCN(CC1CC1)C(=O)NCc1cccc(Cl)c1 [CBK304368]	93.4%	–
O=C1OCc2ccc(NS(=O)(=O)c3ccc(OC(F)(F)F)cc3)cc21 [CBK043715]	82.8%	–
CCn1c(SCC(=O)c2ccc(F)cc2)nnc1C(C)Oc1ccccc1 (centres unmarked) [CBK269695]	108%	–
CC(C)c1ccc(S(=O)(=O)NCCC(C)(C)C)cc1 [CBK043640]	95.4%	–
COc1ccc(C(C)NC(=O)c2cccc(-c3ccc4c(c3)COC3(CCN(C(=O)OC(C)(C)C)CC3)O4)c2)cc1 (centres unmarked) [CBK107833]	–	100%
O=C(CC(CN1CCN(CCO)CC1)C(=O)O)Nc1ccccc1F (centres unmarked) [CBK286790]	86%	–

Compound	viability at 28.5 h, 10 µM	viability at 28.5 h, 10 µM (bulk resorufin, single well)
CCn1cc(C(=O)NN)c(=O)c2cc(F)c(N3CCSCC3)cc21 [CBK307148]	98.8%	–
COc1ccc(S(=O)(=O)Nc2nccnc2-c2ccc(CN3C(=O)CCC3=O)cc2)cc1 [CBK050699]	110%	–
CC(=O)N1CCc2cc(C(=O)N[C@@H](Cc3ccccc3)C(=O)O)ccc21 [CBK298303]	102%	–
Cn1c(SCC(=O)Nc2cccc(C(=O)O)c2)nnc1-c1ccccc1 [CBK300479]	96.1%	–
COc1ccc(Cl)cc1NC(=O)NCCN1CCCCC1 [CBK268169]	112%	–
CC(=O)c1ccc(-c2nc(NC(=O)c3cccc([N+](=O)[O-])c3)cnc2-c2ccc(F)c(Cl)c2)s1 [CBK036816]	97.2%	–
COc1ccc(S(=O)(=O)Nc2ccc(C)cc2)cc1C(=O)Nc1ccc(C)cc1 [CBK265172]	94.7%	–
COc1ccc(C(=O)OC(C)(C)C)c(-c2cncc(NC3CCC(N)CC3)n2)c1 (centres unmarked) [CBK037922]	109%	–
Cc1cccc(N(CC(=O)Nc2ccc3c(c2)oc2ccccc23)S(=O)(=O)c2ccccc2)c1 [CBK264813]	101%	–
O=C(CCCSC1=NC(C(F)(F)F)CC(c2ccco2)N1)Nc1ccc(Cl)c(Cl)c1 (centres unmarked) [CBK268858]	88%	–
CC(=O)NC(c1nccs1)C1CCCN(C(=O)C2CCCC2)C1 (centres unmarked) [CBK284966]	101%	–
COc1nccnc1-c1ccc(SC)cc1 [CBK106795]	95%	–
CCNC(=O)C1(Cc2ccc(-c3cccs3)cc2)CCN(C(=O)c2ccccc2)CC1 [CBK285794]	94.5%	–
Cc1ccc(Oc2nnnn2-c2ccccc2)c(Br)c1 [CBK002827]	106%	–
O=[N+]([O-])c1ccc(CN2CCN(c3nccnc3OCc3cccnc3)CC2)cc1 [CBK083135T]	106%	–
Cc1cc(CNC(=O)N2CCN(CCc3ccccc3)CC2)no1 [CBK158898]	92.7%	–
O=C(C1CCCCC1)N1CC(n2nc(-c3cccs3)ccc2=O)C1 [CBK283346]	99.2%	–
COc1ccccc1N1CCN(C(=O)c2ccccc2C(=O)c2ccccc2)CC1 [CBK091506]	92.9%	–
Cn1cc(C(O)CNC(=O)NCCc2csc3ccccc23)cn1 (centres unmarked) [CBK305219]	95.2%	–
Cc1nn2c(C3CCCNC3)ccnc2c1-c1ccc(F)cc1 (centres unmarked) [CBK284139]	78.8%	–
